According to PMC7926793, “Synthesis and Biological Evaluation of 1-(Diarylmethyl)-1H-1,2,4-triazoles and 1-(Diarylmethyl)-1H-imidazoles as a Novel Class of Anti-Mitotic Agent for Activity in Breast Cancer” (Pharmaceuticals, 2021):

What was measured:
A498 = assay: NCI 60 cell line screen (Renal Cancer); type: cell-based, human; conditions: A498, single dose 10 µM
SK-MEL-5 = assay: NCI 60 cell line screen (Melanoma); type: cell-based, human; conditions: SK-MEL-5, single dose 10 µM
SR = assay: NCI 60 cell line screen (Leukemia); type: cell-based, human; conditions: single dose 10 µM
MOLT-4 = assay: NCI 60 cell line screen (Leukemia); type: cell-based, human; conditions: MOLT-4, single dose 10 µM
K-562 = assay: NCI 60 cell line screen (Leukemia); type: cell-based, human; conditions: K-562, single dose 10 µM
ACHN = assay: NCI 60 cell line screen (Renal Cancer); type: cell-based, human; conditions: single dose 10 µM
NCI-H460 = assay: NCI 60 cell line screen (Non-Small Cell Lung Cancer); type: cell-based, human; conditions: NCI-H460, single dose 10 µM
NCI-H226 = assay: as above; type: cell-based, human; conditions: NCI-H226, single dose 10 µM
RXF 393 = assay: NCI 60 cell line screen (Renal Cancer); type: cell-based, human; conditions: RXF 393, single dose 10 µM
HS 578T = assay: NCI 60 cell line screen (Breast Cancer); type: cell-based, human; conditions: single dose 10 µM
CCRF-CEM = assay: NCI 60 cell line screen (Leukemia); type: cell-based, human; conditions: single dose 10 µM
COLO 205 = assay: NCI 60 cell line screen (Colon Cancer); type: cell-based, human; conditions: COLO 205, single dose 10 µM
BT-549 = assay: NCI 60 cell line screen (Breast Cancer); type: cell-based, human; conditions: BT-549, single dose 10 µM
SK-MEL-2 = assay: NCI 60 cell line screen (Melanoma); type: cell-based, human; conditions: SK-MEL-2, single dose 10 µM
UACC-257 = assay: NCI 60 cell line screen (Melanoma); type: cell-based, human; conditions: UACC-257, single dose 10 µM
LOX IMV1 = assay: NCI 60 cell line screen (Melanoma); type: cell-based, human; conditions: LOX IMV1, single dose 10 µM
OVCAR-4 = assay: NCI 60 cell line screen (Ovarian Cancer); type: cell-based, human; conditions: OVCAR-4, single dose 10 µM
SF295 = assay: NCI 60 cell line screen (CNS Cancer); type: cell-based, human; conditions: SF295, single dose 10 µM
T-47D = assay: NCI 60 cell line screen (Breast Cancer); type: cell-based, human; conditions: single dose 10 µM
OVCAR-3 = assay: NCI 60 cell line screen (Ovarian Cancer); type: cell-based, human; conditions: OVCAR-3, single dose 10 µM
NCI-H332M = assay: NCI 60 cell line screen (Non-Small Cell Lung Cancer); type: cell-based, human; conditions: single dose 10 µM
MDA-MB-435 = assay: NCI 60 cell line screen (Melanoma); type: cell-based, human; conditions: MDA-MB-435, single dose 10 µM
786-0 = assay: NCI 60 cell line screen (Renal Cancer); type: cell-based, human; conditions: 786-0, single dose 10 µM
DU-145 = assay: NCI 60 cell line screen (Prostate cancer); type: cell-based, human; conditions: DU-145, single dose 10 µM
MCF-7 = assay: NCI 60 cell line screen (Breast Cancer); type: cell-based, human; conditions: MCF-7, single dose 10 µM
UO-31 = assay: NCI 60 cell line screen (Renal Cancer); type: cell-based, human; conditions: UO-31, single dose 10 µM
HCT-15 = assay: NCI 60 cell line screen (Colon Cancer); type: cell-based, human; conditions: HCT-15, single dose 10 µM
SNB-19 = assay: NCI 60 cell line screen (CNS Cancer); type: cell-based, human; conditions: SNB-19, single dose 10 µM
U251 (AC in Table 3) = assay: NCI 60 cell line screen (CNS Cancer); type: cell-based, human; conditions: U251, single dose 10 µM
TK-10 = assay: NCI 60 cell line screen (Renal Cancer); type: cell-based, human; conditions: TK-10, single dose 10 µM
SN12C = assay: NCI 60 cell line screen (Renal Cancer); type: cell-based, human; conditions: single dose 10 µM
RPMI-8226 = assay: NCI 60 cell line screen (Leukemia); type: cell-based, human; conditions: RPMI-8226, single dose 10 µM
SF-268 = assay: NCI 60 cell line screen (CNS Cancer); type: cell-based, human; conditions: SF-268, single dose 10 µM
CYP1A1 = molecular target: T1, CYP1A1 (Homo sapiens, UniProt P04798); assay: cytochrome P450 assay (DBF fluorescence)
T1 sequence (P04798 1-512): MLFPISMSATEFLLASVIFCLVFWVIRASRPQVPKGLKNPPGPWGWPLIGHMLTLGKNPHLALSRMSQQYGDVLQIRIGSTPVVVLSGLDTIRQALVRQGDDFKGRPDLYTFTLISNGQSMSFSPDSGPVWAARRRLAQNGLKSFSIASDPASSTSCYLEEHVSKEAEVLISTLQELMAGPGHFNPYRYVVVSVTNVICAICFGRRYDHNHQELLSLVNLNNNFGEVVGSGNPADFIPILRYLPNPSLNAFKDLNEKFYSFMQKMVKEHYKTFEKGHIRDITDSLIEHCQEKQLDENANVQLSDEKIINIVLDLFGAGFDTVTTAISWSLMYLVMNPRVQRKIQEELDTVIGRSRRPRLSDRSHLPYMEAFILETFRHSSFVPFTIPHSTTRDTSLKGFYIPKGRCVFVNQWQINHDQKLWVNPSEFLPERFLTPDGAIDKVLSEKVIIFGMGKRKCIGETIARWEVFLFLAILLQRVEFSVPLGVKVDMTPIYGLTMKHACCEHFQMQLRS

Compound: COc1ccc(C(c2cc(OC)c(OC)c(OC)c2)N2CCN(Cc3ccccc3)CC2)cc1 (centres unmarked) [27d]
- Growth percentage (A498): 51.90%
- Growth percentage (SK-MEL-5): 52.63%
- Growth percentage (SR): 16.10%
- Growth percentage (MOLT-4): 53.48%
- Growth percentage (K-562): 26.38%
- Growth percentage (ACHN): 92.77%
- Growth percentage (NCI-H460): 74.38%
- Growth percentage (NCI-H226): 85.40%
- Growth percentage (RXF 393): 72.30%
- Growth percentage (HS 578T): 59.07%
- Growth percentage (CCRF-CEM): 68.76%
- Growth percentage (COLO 205): 61.78%
- Growth percentage (BT-549): 92.41%
- Growth percentage (SK-MEL-2): 27.38%
- Growth percentage (UACC-257): 84.23%
- Growth percentage (LOX IMV1): 67.02%
- Growth percentage (OVCAR-4): 97.02%
- Growth percentage (SF295): 68.71%
- Growth percentage (T-47D): 75.11%
- Growth percentage (OVCAR-3): 68.96%
- Growth percentage (NCI-H332M): 65.07%
- Growth percentage (MDA-MB-435): -32.20%
- Growth percentage (786-0): 82.57%
- Growth percentage (DU-145): 102.00%
- Growth percentage (MCF-7): 47.67%
- Growth percentage (UO-31): 68.80%
- Growth percentage (HCT-15): 47.63%
- Growth percentage (SNB-19): 69.95%
- Growth percentage (U251 (AC in Table 3)): 62.75%
- Growth percentage (TK-10): 84.76%
- Growth percentage (SN12C): 88.36%
- Growth percentage (RPMI-8226): 84.15%
- Growth percentage (SF-268): 86.44%

Compound: COc1ccc(C(c2cc(OC)c(OC)c(OC)c2)n2nccn2)cc1O (centres unmarked) [compound 24]
- IC50 (CYP1A1; IC50 CYP1A1): > 53.8 µM
- inhibition at 25 min, 20 µg/mL (CYP1A1; human, recombinant CYP1A1, pH 7.4, probe dibenzylfluorescein (DBF), 2.0 μM): 12.8%
